Experimental data reported in US20040204487A1, “Novel medicinal product” (priority 2002, published 2004).
“Also recorded” adds a separate entry of the source.

Key:
[1] = test system: BFC-115 pre-adipocyte cells; assay: Triacylglyceride accumulation in differentiating BFC-115 pre-adipocytes; assay type: cell-based, murine; details: 7 days; for Amount of TAG in μg/mg of protein: control 0.45; for inhibition of the differentiation of the pre-adipocytes: 10 μM
Description: The pre-adipocyte lines 3T3-F442A (commercial line) and BFC 115 (from Claude Forest INSERM, St. Pères Paris V) are cultured until confluency in Dulbecco's modified Eagle medium (DMEM) (Gibco) in the presence of 5% of newborn calf serum and 5% of fetal calf serum (Gibco). From confluency, the cells are cultured in a differentiating medium (DMEM with 10% of fetal calf serum and 20 nM of insulin) in the presence or absence of the metabolites to be tested. The medium is renewed every two or three days. The differentiation of the cells is evaluated either by morphological criteria (very rounded cells having accumulated large lipid vacuoles) or by measuring the average amount of triglycerides per cell (ratio of the amount of triglyceride per dish to the amount of protein per dish). Under standard culture conditions, in 8 days, 90% of the pre-adipocytes have differentiated to adipocytes. […] The BFC-115 pre-adipocyte cells were treated from confluency with 12(R)-HETE (10 μM), 12(S)-HETE (10 μM), 11,12-EET (10 μM) and with arachidonic acid AA (100 μM). The cell differentiation was evaluated after 7 days by measuring the amount of triacylglycerides accumulated per mg of protein.

[2] = test system: cells from human adipose tissue; assay: Triglyceride accumulation in cells from human adipose tissue; assay type: cell-based; details: 10 μM, pro-differentiating medium, three experiments
Excerpt: In addition, cells originating from human fat tissues subsequent to surgical interventions requiring their removal were used. The removed tissues are collected on a bed of ice and immediately treated in the laboratory. The cell culture consists of a mixture of pre-adipocyte cells and adipocyte cells already differentiated.

3T3-F442A cells [3] = assay: Triacylglyceride accumulation in differentiating 3T3-F442A pre-adipocytes; assay type: cell-based, murine; details: for Triacylglycerides (μg/mg protein): 10 μM from confluency, control (no treatment) 0.16; for Triacylglycerides (μg/mg protein) / inhibition of cell differentiation (in words) / concentration of TAGs in the adipocytes, % relative to the control: 7 days; for inhibition of cell differentiation (in words): 10 μM; for concentration of TAGs in the adipocytes, % relative to the control: control 100% (FIG. 2)
Description: The pre-adipocyte lines 3T3-F442A (commercial line) and BFC 115 (from Claude Forest INSERM, St. Pères Paris V) are cultured until confluency in Dulbecco's modified Eagle medium (DMEM) (Gibco) in the presence of 5% of newborn calf serum and 5% of fetal calf serum (Gibco).
From confluency, the cells are cultured in a differentiating medium (DMEM with 10% of fetal calf serum and 20 nM of insulin) in the presence or absence of the metabolites to be tested.
The medium is renewed every two or three days.
The differentiation of the cells is evaluated either by morphological criteria (very rounded cells having accumulated large lipid vacuoles) or by measuring the average amount of triglycerides per cell (ratio of the amount of triglyceride per dish to the amount of protein per dish). Under standard culture conditions, in 8 days, 90% of the pre-adipocytes have differentiated to adipocytes.
The cells are washed with PBS phosphate buffer (Sigma), recovered from the bottom of the Petri dish by scraping with a spatula, fragmented by ultrasound (2 seconds) and then centrifuged at 10000 g for 20 minutes.
The centrifugation supernatant is removed for triacylglyceride (TAG) analysis.
To determine the average amount of triglycerides per cell at the end of the abovementioned experiments, an automated enzymatic colorimetric test (Roche method) which is based on the studies of Wahlefeld (Wahlefeld and Bergmeyer (eds). Methods of Enzymatic Analysis. 2 second edition. New York Academic Press Inc. 1974: 1831) was used as assaying method.
The 3T3-F442A pre-adipocyte cells were treated from confluency with 12(R)-HETE (10 μM), 12(S)-HETE (10 μM), 11,12-EET (10 μM) and with Δ 15-deoxy prostaglandin J2 (10 μM, Δ 15-deoxyPGJ2) in the presence or absence of 10 μM of 12(R)-HETE. The cell differentiation was evaluated after 7 days by measuring, as indicated above, the amount of triacylglycerides accumulated per mg of protein.
To do this, 3T3-F442A fibroblasts, or pre-adipocyte cells, were treated from confluency with various concentrations of 12(R)-HETE. The cell differentiation was evaluated after 7 days by measuring the amount of triacylglycerides (TAGs) accumulated per mg of protein (prot).

[4] = test system: differentiated 3T3-F442A cells; assay: Residual level of metabolite in culture medium of differentiated cells (LC-MS); assay type: in vitro ADME, murine; details: 10 μM
Description: It was also determined that the residual level of 12(R)-HETE, present at a concentration of 10 μM in the culture medium of the differentiated 3T3-F442A cells, is respectively 85% and 2.3% after 6 h and 18 h of incubation.
The residual amounts of 12(R)-HETE were analyzed by LC-MS.

[5] = Cellular toxicity markers after 8 days of treatment; assay type: cell-based; details: 30 μM
Description: The possible toxicity of the metabolites selected in accordance with the invention was also studied.
For this purpose, several cellular toxicity markers were measured after 8 days of treatment, namely
the LDH (lactate dehydrogenase) activity in the culture medium, a control for membrane permeabilization,
fragmentation of the nucleus by “Hoechst” staining, which is a marker for apoptosis and which is described in Leukemia, 15, 1572-81. Plenchette, S., Moutet M., Benguella M., N'Gondara J. P., Guigner F., Coffe C., Corcos L., Bettaieb A. and Solary E. (2001).

3T3-F442A cells [6] = assay: Direct morphological examination of differentiation of fibroblasts to adipocytes; assay type: cell-based, murine
Description: The differentiation of the cells is evaluated either by morphological criteria (very rounded cells having accumulated large lipid vacuoles) or by measuring the average amount of triglycerides per cell (ratio of the amount of triglyceride per dish to the amount of protein per dish). Under standard culture conditions, in 8 days, 90% of the pre-adipocytes have differentiated to adipocytes. To show by direct morphological examination the differentiation of the fibroblasts to adipocytes in the presence or absence of the metabolites 12-HETE and/or 11,12-EET, the following procedure was carried out. The 3T3-F442A cells are treated, from confluency, with these metabolites. The treatment was renewed every 2 or 3 days throughout the entire differentiation process. The level of differentiation of the cells was evaluated by observation under a photon microscope with a 200 times magnification (see the photos shown in figures FIG. 1A, FIG. 1A1, FIG. 1B and FIG. 1B1).

[7] = test system: pre-adipocyte fibroblasts; details: cited from earlier work

| SMILES | Amount of TAG in μg/mg of protein ([1]; 10 μM from confluency) | inhibition of the differentiation of the pre-adipocytes [1] | inhibition of the accumulation of triglycerides [2] [%] | Triacylglycerides (μg/mg protein) (3T3-F442A cells [3]) | inhibition of cell differentiation (in words) (3T3-F442A cells [3]) | other results |
| --- | --- | --- | --- | --- | --- | --- |
| CCCCC/C=C\CC1OC1C/C=C\C/C=C\CCCC(=O)O (stereo not drawn) [11,12-EET, 11,12-epoxyeicosatrienoic acid] | =0.22 μg/mg of protein | approximately 40% | 50 | 0.08 | greatly inhibit the cell differentiation | – |
| CCCCC/C=C\C[C@@H](O)/C=C/C=C\C/C=C\CCCC(=O)O [12(R)-HETE, 12-hydroxyeicosatetraenoic acid] | =0.17 μg/mg of protein | approximately 40% | 50 | 0.04 | greatly inhibit the cell differentiation; also recorded: greater than that of 12(S)-HETE | penetration into the cells (conclusion from residual level) [4]: clearly penetrates into the cells; residual level in the culture medium ([4]; after 6 h of incubation): 85%; residual level in the culture medium ([4]; after 18 h of incubation): 2.3%; concentration of TAGs in the adipocytes, % relative to the control (3T3-F442A cells [3]; 5 μM): approximately 85%; inhibition of the differentiation induced by Δ 15-deoxyprostaglandin J2 (3T3-F442A cells [3]; 10 μM 12(R)-HETE with 10 μM 15-deoxyPGJ2, 7 days): approximately 40%; concentration of TAGs in the adipocytes, % relative to the control (3T3-F442A cells [3]; 30 μM): approximately 25%; cellular toxicity markers (number of cells, cell morphology, LDH activity in medium, fragmentation of the nucleus by Hoechst staining) [5]: None of these markers responds positively; cell morphology under photon microscope (3T3-F442A cells [6]; 10 μM, 7 days, with or without 100 μM arachidonic acid (FIG. 1A1, 1B1)): spindle-shaped with very few lipid globules |
| CCCCC/C=C\C[C@@H](O)/C=C/C=C\C/C=C\CCCC(=O)O [12(S)-HETE, 12-hydroxyeicosatetraenoic acid] | =0.28 μg/mg of protein | approximately 40% | – | 0.07 | greatly inhibit the cell differentiation | – |
| CCCCC/C=C/C=C1/C(=O)C=C[C@@H]1C/C=C\CCCC(=O)O [15-deoxyPGJ2, 15-deoxy-Δ^12,14-prostaglandin J2, reference compound] | – | – | – | 0.52 | – | concentrations at which differentiation is accelerated [7]: 10^−5 to 10^−6 M |
| CCCCC/C=C\C/C=C\C/C=C\C/C=C\CCCC(=O)O [AA, arachidonic acid, reference compound] | – | – | – | – | – | Amount of TAG in μg/mg of protein ([1]; 100 μM from confluency): =0.55 μg/mg of protein; effect on differentiation (in words) ([1]; 100 μM): clearly promotes the differentiation; cell morphology under photon microscope (3T3-F442A cells [6]; 100 μM from confluency (FIG. 1B)): increases the amount of cells differentiated into adipocytes |
